Test system: Mycobacterium tuberculosis
Test: Antimicrobial activity against Mycobacterium bovis BCG
Format: functional
Details: variant bovis BCG

For `CCOC(=O)c1cc(COc2cc(C(F)(F)F)nc3c(C(F)(F)F)cccc23)on1`, the MIC was under 0.5 µM.
`O=C(O)c1cc(COc2cc(C(F)(F)F)nc3c(C(F)(F)F)cccc23)on1` was tested, and the MIC was over 128 µM.

From ChEMBL document CHEMBL1157741, “Synthesis and antituberculosis activity of novel mefloquine-isoxazole carboxylic esters as prodrugs” (Bioorg Med Chem Lett, 2010)
